For the assay, the target named is Mitogen-activated protein kinase 14 (Homo sapiens, UniProt Q16539). Briefly: Inhibition of p38alpha by immunosorbent based assay.
Mitogen-activated protein kinase 14, sequence (Q16539 whole entry): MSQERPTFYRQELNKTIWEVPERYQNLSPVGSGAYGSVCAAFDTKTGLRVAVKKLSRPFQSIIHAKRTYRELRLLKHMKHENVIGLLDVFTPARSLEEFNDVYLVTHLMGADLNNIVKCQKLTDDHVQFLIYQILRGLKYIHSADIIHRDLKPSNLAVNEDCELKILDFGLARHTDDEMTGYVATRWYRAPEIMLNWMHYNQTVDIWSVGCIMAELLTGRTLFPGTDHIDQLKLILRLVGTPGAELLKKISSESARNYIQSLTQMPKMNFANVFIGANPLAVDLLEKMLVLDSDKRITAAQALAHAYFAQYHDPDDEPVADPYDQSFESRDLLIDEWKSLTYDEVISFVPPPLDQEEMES

The IC50 is the concentration that inhibits the measured activity by half. `CCC(=O)Nc1cc(-c2c(-c3ccc(F)cc3)nc(SC)n2CCOC)ccn1` returned an IC50 of 0.18 µM.
In the case of `CSc1nc(-c2ccc(F)cc2)c(-c2ccnc(NC(C)=O)c2)n1CCC(=O)N1CCCCC1`, the IC50 stood at 2.24 µM.
Regarding `CSc1nc(-c2ccc(F)cc2)c(-c2ccnc(NC(C)=O)c2)n1CCC(=O)N1CCOCC1`, inhibition was half-maximal at 1.57 µM (IC50).
For the compound `CSc1nc(-c2ccc(F)cc2)c(-c2ccnc(NC(=O)/C=C/c3c(Cl)cccc3Cl)c2)[nH]1`, it took 0.003 µM to reach half-maximal inhibition (IC50).
`CSc1nc(-c2ccc(F)cc2)c(-c2ccnc(NC(=O)/C(F)=C/c3ccccc3)c2)[nH]1` yielded an IC50 of 0.027 µM.
`CCN(CC)C(=O)Cn1c(SC)nc(-c2ccc(F)cc2)c1-c1ccnc(NC(C)=O)c1` displayed an IC50 of 0.06 µM.
In turn, `CSc1nc(-c2ccc(F)cc2)c(-c2ccnc(NC(C)=O)c2)n1CC(=O)N1CCOCC1` returned an IC50 of 0.28 µM.
`CSc1nc(-c2ccnc(NC(=O)Cc3ccc(F)cc3)c2)c(-c2ccc(F)cc2)[nH]1` gave an IC50 of 0.009 µM.
`CSc1nc(-c2ccc(F)cc2)c(-c2ccnc(NC(=O)c3ccc(C)c(F)c3)c2)[nH]1` returned an IC50 of 0.014 µM.
On to `CSc1nc(-c2ccc(F)cc2)c(-c2ccnc(NC(C)=O)c2)n1C1CCOCC1`, for which the IC50 was 0.78 µM.
As for `CSc1nc(-c2ccc(F)cc2)c(-c2ccnc(NC(C)=O)c2)n1[C@H]1CC[C@H](O)CC1`, the figure is 0.32 µM.
For the compound `CSc1nc(-c2ccc(F)cc2)c(-c2ccnc(NC(=O)COc3ccc(Cl)cc3)c2)[nH]1`, it took 0.1 µM to reach half-maximal inhibition (IC50).
As for `CSc1nc(-c2ccc(F)cc2)c(-c2ccnc(NC(=O)COc3ccc(Cl)cc3Cl)c2)[nH]1`, the figure is 0.16 µM; as for `CSc1nc(-c2ccc(F)cc2)c(-c2ccnc(NC(C)=O)c2)n1C1CCCCC1`, 0.79 µM.
`CSc1nc(-c2ccc(F)cc2)c(-c2ccnc(NC(C)=O)c2)n1C1CC1` displayed an IC50 of 0.4 µM.
As for `CSc1nc(-c2ccc(F)cc2)c(-c2ccnc(NC(=O)COc3cccc(Cl)c3Cl)c2)[nH]1`, the IC50 was found to be 0.16 µM.
Take `CSc1nc(-c2ccc(F)cc2)c(-c2ccnc(NC(=O)c3cc4ccccc4o3)c2)[nH]1`: half-maximal inhibition (IC50) was put at 0.053 µM.
With `CCC(CC)n1c(SC)nc(-c2ccc(F)cc2)c1-c1ccnc(NC(C)=O)c1`, 0.57 µM corresponded to half-maximal inhibition (IC50).
The compound `CSc1nc(-c2ccc(F)cc2)c(-c2ccnc(NC(C)=O)c2)n1CCCl` displayed an IC50 of 0.15 µM.
As for `CSc1nc(-c2ccc(F)cc2)c(-c2ccnc(NC(=O)C3=Cc4ccccc4OC3)c2)[nH]1`, the figure is 0.027 µM; as for `CSc1nc(-c2ccc(F)cc2)c(-c2ccnc(NC(=O)C(C)c3ccc(CC(C)C)cc3)c2)[nH]1` (centres undefined), 0.09 µM; as for `CSc1nc(-c2ccc(F)cc2)c(-c2ccnc(NC(C)=O)c2)n1CCCCl`, 0.017 µM.
`CSc1nc(-c2ccc(F)cc2)c(-c2ccnc(NC(C)=O)c2)n1CCCCCl` displayed an IC50 of 0.18 µM.
As to `CSc1nc(-c2ccc(F)cc2)c(-c2ccnc(NC(=O)CCc3ccc(C(C)(C)C)cc3)c2)[nH]1`, half-maximal inhibition (IC50) was put at 0.13 µM.
Regarding `CSc1nc(-c2ccc(F)cc2)c(-c2ccnc(NC(=O)c3ccco3)c2)[nH]1`, it took 0.013 µM to reach half-maximal inhibition (IC50).
Turning to `CSc1nc(-c2ccc(F)cc2)c(-c2ccnc(NC(C)=O)c2)n1CCCBr`, the midpoint of inhibition, the IC50, lay at 0.027 µM.
Compound `CSc1nc(-c2ccc(F)cc2)c(-c2ccnc(NC(C)=O)c2)n1CCCF` had an IC50 of 0.18 µM.
In turn, `CSc1nc(-c2ccc(F)cc2)c(-c2ccnc(NC(=O)c3ccc(-c4ccccc4)cc3)c2)[nH]1` registered an IC50 of 0.1 µM.
In turn, `CSc1nc(-c2ccc(F)cc2)c(-c2ccnc(NC(C)=O)c2)n1CCCI` returned an IC50 of 0.019 µM.
With `C=CC(=O)Nc1cc(-c2c(-c3ccc(F)cc3)nc(SC)n2CCOC)ccn1`, half-maximal inhibition (IC50) was put at 0.17 µM.
In turn, `COCCn1c(SC)nc(-c2ccc(F)cc2)c1-c1ccnc(NC(=O)CC(F)(F)F)c1` yielded an IC50 of 0.49 µM.
Consider `COCCn1c(SC)nc(-c2ccc(F)cc2)c1-c1ccnc(NC(=O)c2cccs2)c1`, for which the IC50 stood at 0.24 µM.
With `CCn1c(SC)nc(-c2ccc(F)cc2)c1-c1ccnc(NC(=O)/C=C/c2c(Cl)cccc2Cl)c1`, inhibition was half-maximal at 0.1 µM (IC50).
In turn, `CSc1nc(-c2ccc(F)cc2)c(-c2ccnc(NC(C)=O)c2)n1CCCCO` displayed an IC50 of 0.14 µM.
As for `CCn1c(SC)nc(-c2ccc(F)cc2)c1-c1ccnc(NC(=O)/C=C/c2ccc(OC)cc2OC)c1`, the figure is 0.038 µM.
Compound `CCn1c(SC)nc(-c2ccc(F)cc2)c1-c1ccnc(NC(=O)/C=C/c2ccc(OC)cc2)c1` had an IC50 of 0.075 µM.
The compound `CSc1nc(-c2ccc(F)cc2)c(-c2ccnc(NC(C)=O)c2)n1CC(O)CO` (centres undefined) gave an IC50 of 1.49 µM.
Compound `CSc1nc(-c2ccc(F)cc2)c(-c2ccnc(NC(C)=O)c2)n1C(CO)CO` showed an IC50 of 6.28 µM.
For `CCn1c(SC)nc(-c2ccc(F)cc2)c1-c1ccnc(NC(=O)Cc2ccc(F)cc2)c1`, the midpoint of inhibition, the IC50, lay at 0.093 µM.
In turn, `CSc1nc(-c2ccc(F)cc2)c(-c2ccnc(NC(=O)/C=C/c3c(Cl)cccc3Cl)c2)n1C` displayed an IC50 of 0.17 µM.
Turning to `CSc1nc(-c2ccc(F)cc2)c(-c2ccnc(NC(C)=O)c2)n1C(CCO)CCO`, the IC50 is 6.14 µM.
As to `CSc1nc(-c2ccc(F)cc2)c(-c2ccnc(NC(C)=O)c2)n1CCC(=O)O`, the midpoint of inhibition, the IC50, lay at 2.26 µM.
As for `COc1ccc(/C=C/C(=O)Nc2cc(-c3c(-c4ccc(F)cc4)nc(SC)n3C)ccn2)c(OC)c1`, the figure is 0.28 µM; as for `COc1ccc(/C=C/C(=O)Nc2cc(-c3c(-c4ccc(F)cc4)nc(SC)n3C)ccn2)cc1`, 0.018 µM.
For the compound `CCOC(=O)CCn1c(SC)nc(-c2ccc(F)cc2)c1-c1ccnc(NC(C)=O)c1`, 0.44 µM corresponded to half-maximal inhibition (IC50).
Regarding `COC(=O)CCn1c(SC)nc(-c2ccc(F)cc2)c1-c1ccnc(NC(C)=O)c1`, half-maximal inhibition (IC50) was put at 0.33 µM.
In turn, `CSc1nc(-c2ccc(F)cc2)c(-c2ccnc(NC(=O)Cc3ccc(F)cc3)c2)n1C` gave an IC50 of 0.13 µM.
Next, `CSc1nc(-c2ccc(F)cc2)c(-c2ccnc(NC(=O)Cc3ccc(Cl)cc3)c2)n1C`: 0.022 µM; `CSc1nc(-c2ccc(F)cc2)c(-c2ccnc(NC(C)=O)c2)n1CCCC(=O)O`: 1.62 µM; `CSc1nc(-c2ccc(F)cc2)c(-c2ccnc(NC(C)=O)c2)n1CCCCC(=O)O`: 0.77 µM.
On to `CSc1nc(-c2ccc(F)cc2)c(-c2ccnc(NC(=O)C3CC3)c2)n1C`, for which half-maximal inhibition (IC50) was put at 0.17 µM.
As for `CSc1nc(-c2ccc(F)cc2)c(-c2ccnc(NC(=O)C3CCCC3)c2)n1C`, the figure is 0.15 µM.
As for `CSc1nc(-c2ccc(F)cc2)c(-c2ccnc(NC(C)=O)c2)n1CCC(=O)N1CCCC1`, the figure is 1.14 µM; as for `CCN(CC)C(=O)CCn1c(SC)nc(-c2ccc(F)cc2)c1-c1ccnc(NC(C)=O)c1`, 1.2 µM; as for `CSc1nc(-c2ccc(F)cc2)c(-c2ccnc(NC(=O)/C=C/c3ccc(C)cc3)c2)[nH]1`, 0.032 µM.
Turning to `COc1ccc(/C=C/C(=O)Nc2cc(-c3[nH]c(SC)nc3-c3ccc(F)cc3)ccn2)cc1`, the IC50 came out at 0.01 µM.
Next, `CSc1nc(-c2ccc(F)cc2)c(-c2ccnc(NC(C)=O)c2)n1CCO`: 0.11 µM; `CSc1nc(-c2ccc(F)cc2)c(-c2ccnc(NC(C)=O)c2)n1CCCO`: 0.15 µM; `COCCn1c(SC)nc(-c2ccc(F)cc2)c1-c1ccnc(NC(C)=O)c1`: 0.11 µM.

For the origin of these results see ChEMBL document CHEMBL1268993, “Tri- and tetrasubstituted imidazoles as p38α mitogen-activated protein kinase inhibitors” (Bioorg Med Chem Lett, 2010).
